Tests used:
Format in all cases: in vivo
[1] = system: Echinochloa oryzacola Vasing.; test: Test Example 1: herbicidal activity, application before weed generation in submerged conditions; conditions: Application herbicide amount 320 g/ha; Seventeenth Table
Procedure, shortened: (§1)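 Submerged pot test: alluvial soil, 4 cm water, seeds sown mixed, 2.5-leaf rice transplanted; emulsion in water applied to surface day of sowing, dose g/ha; greenhouse 25–30° C.; 3 wk; 0–5 rating.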

[2] = system: Monochoria vaginalis; test: as above; conditions: Application herbicide amount 320 g/ha; Seventeenth Table
Procedure, shortened: as §1

[3] = system: Scirpus juncoides; test: as above; conditions: Application herbicide amount 320 g/ha; Seventeenth Table
Procedure, shortened: as §1

[4] = system: transplanted Oryza sativa; test: Test Example 1: effect on crop, application before weed generation in submerged conditions; conditions: Application herbicide amount 320 g/ha; Seventeenth Table
Procedure, shortened: as §1

[5] = system: Setaria viridis; test: Test Example 4: herbicidal effect by application to foliage (diluvial soil, plastic box); conditions: for G: herbicidal effect on Setaria viridis: application to foliage, application herbicide amount 320 g/ha; for G (Setaria viridis) herbicidal effect grade: foliage application
Procedure, shortened: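 Read-out is a 0–5 visual grade of herbicidal ratio (5: ≥90%, almost withered; 0: ≤5%) taken three weeks after treatment. Compound was applied as a diluted emulsion to stem and leaf parts of 14-day greenhouse-grown plants (25° C. to 30° C.) at rates expressed as g/ha.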

[6] = system: Leptochloa chinensis; test: Test Example 3: herbicidal effect by application to foliage (Wagner pot, water depth 0.1-0.5 cm); conditions: Nineteenth Table; application to foliage; application herbicide amount 320 g/ha
Procedure, shortened: (§2)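 Grading uses six bands of herbicidal ratio, from 0 (≤5%, almost no effect) to 5 (≥90%, almost completely withered). Treatment was a stem-and-leaf spray of diluted emulsion at a fixed g/ha on 14-day-old plants; evaluation after three weeks.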

[7] = system: Echinochloa crus-galli var. crus-galli; test: as above; conditions: Nineteenth Table; application to foliage; application herbicide amount 320 g/ha
Procedure, shortened: as §2

[8] = system: Cyperus difformis; test: as above; conditions: Nineteenth Table; application to foliage; application herbicide amount 320 g/ha
Procedure, shortened: as §2

[9] = system: directly sowed Oryza sativa; test: Test Example 3: effect on crop by application to foliage (Wagner pot, water depth 0.1-0.5 cm); conditions: Nineteenth Table; application to foliage; application herbicide amount 320 g/ha
Procedure, shortened: as §2

[10] = Application herbicide amount 320 g/ha

| Structure (SMILES) | A: Echinochloa oryzicola Vasing. (herbicidal effect grade) [1] | C: Monochoria vaginalis (herbicidal effect grade) [2] | B: Scirpus juncoides (herbicidal effect grade) [3] | a: transplanted Oryza sativa (effect on crop grade) [4] | G: herbicidal effect on Setaria viridis [5] | D (herbicidal effect grade) [6] | H (herbicidal effect grade) [7] | E (herbicidal effect grade) [8] | b (effect on crop grade) [9] | G (Setaria viridis) herbicidal effect grade [5, 10] | G [5, 10] |
| --- | --- | --- | --- | --- | --- | --- | --- | --- | --- | --- | --- |
| COc1ccc(-c2nnc3c(C(=O)Nc4nnnn4C)ccc(C(F)(F)F)n23)cc1 [2-011] | 5 (Herbicidal ratio of 90% or more (almost completely withered)) | 5 (Herbicidal ratio of 90% or more (almost completely withered)) | 5 (Herbicidal ratio of 90% or more (almost completely withered)) | 2 (Herbicidal ratio of 20% or more and less than 40%) | 3 (Herbicidal ratio of 40% or more and less than 70%) | 5 (Herbicidal ratio of 90% or more (almost completely withered)) | 5 (Herbicidal ratio of 90% or more (almost completely withered)) | 5 (Herbicidal ratio of 90% or more (almost completely withered)) | 5 (Herbicidal ratio of 90% or more (almost completely withered)) |  |  |
| CCN(CC)c1nnc2c(C(=O)Nc3nnco3)ccc(C(F)(F)F)n12 [1-138] | 5 (Herbicidal ratio of 90% or more (almost completely withered)) | 4 (Herbicidal ratio of 70% or more and less than 90%) | 5 (Herbicidal ratio of 90% or more (almost completely withered)) | 2 (Herbicidal ratio of 20% or more and less than 40%) |  | 5 (Herbicidal ratio of 90% or more (almost completely withered)) | 5 (Herbicidal ratio of 90% or more (almost completely withered)) | 4 (Herbicidal ratio of 70% or more and less than 90%) | 3 (Herbicidal ratio of 40% or more and less than 70%) | 3 (Herbicidal ratio of 40% or more and less than 70%) |  |
| Cn1nnnc1NC(=O)c1ccc(C(F)(F)F)n2c(-c3ccc(Cl)cc3)nnc12 [2-012] | 5 (Herbicidal ratio of 90% or more (almost completely withered)) | 3 (Herbicidal ratio of 40% or more and less than 70%) | 4 (Herbicidal ratio of 70% or more and less than 90%) | 1 (Herbicidal ratio of 5% or more and less than 20%) | 1 (Herbicidal ratio of 5% or more and less than 20%) | 5 (Herbicidal ratio of 90% or more (almost completely withered)) | 4 (Herbicidal ratio of 70% or more and less than 90%) | 5 (Herbicidal ratio of 90% or more (almost completely withered)) | 2 (Herbicidal ratio of 20% or more and less than 40%) |  |  |
| Cc1nnc(NC(=O)c2ccc(C(F)(F)F)n3c(CC4CC4)nnc23)o1 [1-104] | 4 (Herbicidal ratio of 70% or more and less than 90%) | 2 (Herbicidal ratio of 20% or more and less than 40%) | 3 (Herbicidal ratio of 40% or more and less than 70%) | 0 (Herbicidal ratio of 5% or less (almost no effect)) |  | 5 (Herbicidal ratio of 90% or more (almost completely withered)) | 5 (Herbicidal ratio of 90% or more (almost completely withered)) | 4 (Herbicidal ratio of 70% or more and less than 90%) | 0 (Herbicidal ratio of 5% or less (almost no effect)) |  | 5 (Herbicidal ratio of 90% or more (almost completely withered)) |
| CC(C)c1nnc2c(C(=O)N(C)c3nnnn3C)ccc(C(F)(F)F)n12 [2-023] | 2 (Herbicidal ratio of 20% or more and less than 40%) | 0 (Herbicidal ratio of 5% or less (almost no effect)) | 1 (Herbicidal ratio of 5% or more and less than 20%) | 3 (Herbicidal ratio of 40% or more and less than 70%) | 1 (Herbicidal ratio of 5% or more and less than 20%) | 1 (Herbicidal ratio of 5% or more and less than 20%) | 4 (Herbicidal ratio of 70% or more and less than 90%) | 0 (Herbicidal ratio of 5% or less (almost no effect)) | 1 (Herbicidal ratio of 5% or more and less than 20%) |  |  |
| Cc1nnc(NC(=O)c2ccc(C(F)(F)F)n3c(NCC(F)(F)F)nnc23)o1 [1-131] | 2 (Herbicidal ratio of 20% or more and less than 40%) | 0 (Herbicidal ratio of 5% or less (almost no effect)) | 1 (Herbicidal ratio of 5% or more and less than 20%) | 0 (Herbicidal ratio of 5% or less (almost no effect)) |  | 4 (Herbicidal ratio of 70% or more and less than 90%) | 4 (Herbicidal ratio of 70% or more and less than 90%) | 3 (Herbicidal ratio of 40% or more and less than 70%) | 2 (Herbicidal ratio of 20% or more and less than 40%) | 3 (Herbicidal ratio of 40% or more and less than 70%) |  |
| CSCCNc1nnc2c(C(=O)Nc3nnc(C)o3)ccc(C(F)(F)F)n12 [1-130] | 1 (Herbicidal ratio of 5% or more and less than 20%) | 0 (Herbicidal ratio of 5% or less (almost no effect)) | 0 (Herbicidal ratio of 5% or less (almost no effect)) | 1 (Herbicidal ratio of 5% or more and less than 20%) |  | 4 (Herbicidal ratio of 70% or more and less than 90%) | 5 (Herbicidal ratio of 90% or more (almost completely withered)) | 2 (Herbicidal ratio of 20% or more and less than 40%) | 2 (Herbicidal ratio of 20% or more and less than 40%) | 4 (Herbicidal ratio of 70% or more and less than 90%) |  |
| CCSc1nnc2c(C(=O)Nc3nnco3)ccc(C(F)(F)F)n12 [1-106] | 5 (Herbicidal ratio of 90% or more (almost completely withered)) | 4 (Herbicidal ratio of 70% or more and less than 90%) | 5 (Herbicidal ratio of 90% or more (almost completely withered)) | 1 (Herbicidal ratio of 5% or more and less than 20%) |  | 5 (Herbicidal ratio of 90% or more (almost completely withered)) | 5 (Herbicidal ratio of 90% or more (almost completely withered)) | 5 (Herbicidal ratio of 90% or more (almost completely withered)) | 3 (Herbicidal ratio of 40% or more and less than 70%) | 5 (Herbicidal ratio of 90% or more (almost completely withered)) |  |
| Cn1nnnc1NC(=O)c1ccc(C(F)(F)F)n2c(C3CC3)nnc12 [2-005] | 5 (Herbicidal ratio of 90% or more (almost completely withered)) | 5 (Herbicidal ratio of 90% or more (almost completely withered)) | 5 (Herbicidal ratio of 90% or more (almost completely withered)) | 0 (Herbicidal ratio of 5% or less (almost no effect)) | 4 (Herbicidal ratio of 70% or more and less than 90%) | 5 (Herbicidal ratio of 90% or more (almost completely withered)) | 5 (Herbicidal ratio of 90% or more (almost completely withered)) | 4 (Herbicidal ratio of 70% or more and less than 90%) | 2 (Herbicidal ratio of 20% or more and less than 40%) |  |  |
| Cc1cc(-c2nnc3c(C(=O)Nc4nnnn4C)ccc(C(F)(F)F)n23)no1 [2-017] | 5 (Herbicidal ratio of 90% or more (almost completely withered)) | 4 (Herbicidal ratio of 70% or more and less than 90%) | 3 (Herbicidal ratio of 40% or more and less than 70%) | 4 (Herbicidal ratio of 70% or more and less than 90%) | 5 (Herbicidal ratio of 90% or more (almost completely withered)) | 5 (Herbicidal ratio of 90% or more (almost completely withered)) | 5 (Herbicidal ratio of 90% or more (almost completely withered)) | 5 (Herbicidal ratio of 90% or more (almost completely withered)) | 5 (Herbicidal ratio of 90% or more (almost completely withered)) |  |  |

Reference: patent US9708314B2, “Heterocyclic amide compound” (NISSAN CHEMICAL INDUSTRIES, LTD., priority 2013, dated 2017)
